{"source": "EPA's ToxValDB 9.5 (doi:10.2903/j.efsa.2010.1624)", "key": {"[1]": {"test_system": "Typhlodromus pyri", "settings": "not reported"}, "[2]": {"test_system": "Anas platyrhynchos", "settings": "oral, mortality"}, "[3]": {"test_system": "Folsomia candida", "settings": "chronic/long-term; reproduction"}, "[4]": {"test_system": "Tagia sp."}, "[5]": {"test_system": "Oncorhynchus mykiss"}, "[6]": {"test_system": "Colinus virginianus"}, "[7]": {"test_system": "Apis mellifera", "settings": "acute; duration: 48 hours; oral; unspecified; mortality"}, "[8]": {"test_system": "Canidae", "settings": "subchronic; duration: 90 days; oral; Dog Other; histopathology: nonneoplastic"}, "[9]": {"test_system": "Mus musculus", "settings": "acute; oral; mortality"}, "[10]": {"test_system": "Daphnia magna", "settings": "chronic/long-term; duration: 21 days"}, "[11]": {"test_system": "Plant", "settings": "chronic/long-term; development"}, "[12]": {"test_system": "Rattus norvegicus"}, "[13]": {"settings": "reproduction developmental, reproduction"}}}
{"smiles": "CC(C)N1C(=O)N(c2ccccc2)CSC1=NC(C)(C)C", "note": "[Buprofezin]", "values": [{"measurement": "LEL", "setting": "[1]; mortality", "value": 3000, "unit": "g/ha"}, {"measurement": "LEL", "setting": "[1]; reproduction", "value": 3000, "unit": "g/ha"}, {"measurement": "LD50", "setting": "[2]; acute, unspecified", "value": "> 2000", "unit": "mg/kg-day"}, {"measurement": "LC50", "setting": "[2]; short-term, feed", "value": "> 1310", "unit": "mg/kg-day"}, {"measurement": "NOEC", "setting": "[3]", "value": 62.5, "unit": "mg/kg"}, {"measurement": "LC50", "setting": "[4]; acute, duration: 14 days, mortality", "value": "> 1000", "unit": "mg/kg"}, {"measurement": "NOEC", "setting": "[4]; chronic/long-term, reproduction", "value": 500, "unit": "mg/kg"}, {"measurement": "LC50", "setting": "[5]; acute, duration: 96 hours, mortality", "value": 0.33, "unit": "µg/mL"}, {"measurement": "NOEC", "setting": "[5]; chronic/long-term, growth", "value": 0.052, "unit": "mg/L"}, {"measurement": "LC50", "setting": "[6]; acute, oral, diet, mortality", "value": "> 1310", "unit": "mg/kg-day"}, {"measurement": "LD50", "setting": "[6]; acute, oral, mortality", "value": "> 2000", "unit": "mg/kg-day"}, {"measurement": "NOEC", "setting": "[6]; developmental, development", "value": 48, "unit": "mg/kg-day"}, {"measurement": "NOEC", "setting": "[6]; [13]", "value": 198, "unit": "mg/kg-day"}, {"measurement": "LD50", "setting": "[7]", "value": "> 164", "unit": "µg/piece"}, {"measurement": "NOAEL", "setting": "[8]", "value": 10, "unit": "mg/kg-day"}, {"measurement": "LD50", "setting": "[9]", "value": "> 2000", "unit": "mg/kg-day"}, {"measurement": "NOEC", "setting": "[10]", "value": 0.08, "unit": "mg/L"}, {"measurement": "LEL", "setting": "[11]", "value": "> 100", "unit": "g/ha"}, {"measurement": "LD50", "setting": "[12]; acute, oral, mortality", "value": "> 2000", "unit": "mg/kg-day"}, {"measurement": "NOAEL", "setting": "[12]; chronic, duration: 2 years, histopathology: nonneoplastic", "value": 1, "unit": "mg/kg-day"}, {"measurement": "NOAEL", "setting": "[12]; developmental, development", "value": 50, "unit": "mg/kg-day"}, {"measurement": "NOEL", "setting": "[12]; [13]", "value": 66, "unit": "mg/kg-day"}]}
